Measurements as given in patent US10370348B2, “Tocopherol and tocopheryl quinone derivatives as correctors of lysosomal storage disorders” (The United States of America, as represented by the …, priority 2012, dated 2019).

System: wild type cells
Experiment: Reduction of cholesterol levels in wild type cells
Type: cell-based
Conditions: with increasing concentration, FIG. 1A
Description: The half maximal effective concentration (EC-50) for delta-tocopherol and five analogues was measured in wild type and NPC 3123 cells. […] Further, in NPC cells (FIG. 1B), the cholesterol level drop was substantial relative to the control (no delta-tocopherol).

## Cc1cc(O)cc2c1O[C@](C)(CCC[C@H](C)CCC[C@H](C)CCCC(C)C)CC2 [delta-tocopherol]
  cholesterol levels in wild type cells: cholesterol levels dropped
